Laboratory results reported in paper PMC3937006, “Synergism of peptide receptor-targeted Auger electron radiation therapy with anti-angiogenic compounds in a mouse model of neuroendocrine tumors” (EJNMMI Research, 2014).

What was measured:
[1] = tested on: pancreatic tumors and other organs of Rip1Tag2 mice; format: in vivo, mouse
Description: Male and female Rip1Tag2 mice, 19 to 32 g of weight and 11.6 ± 0.7 weeks old, were stratified according to their age and randomly assigned to the different cohorts. […] Both vatalanib and imatinib were provided by Novartis (Basel, Switzerland). Days (0, 3, 5, and 7 days) after the beginning of vatalanib or imatinib treatment, the mice were injected through the tail vein with 185 kBq (10 ng peptide/2 pmol) [Lys^40(Ahx-DTPA-^111In)NH2]-exendin-4 (^111In-DTPA-exendin-4) in a 100-μl 1% human serum albumin solution diluted in 0.9% NaCl. At 4 h after injection, the mice were sacrificed under isoflurane and CO2 anesthesia. The organs, blood, and tumors were collected, weighed, and the radioactivity in these samples was determined using a γ-counter. The percentage of injected activity (IA)/g tissue was calculated for each tissue.

[2] = tested on: CD31-positive blood vessels in tumors of Rip1Tag2 mice; assay: Microvessel density, CD31 immunohistochemistry on tumor sections; format: in vivo, mouse; details: for microvessel density, CD31-positive blood vessels (median): Rip1Tag2 mice after 7-day therapy, radiopeptide 1.1 MBq, natIn-exendin-4 40 pmol, kinase inhibitor 100 mg/kg p.o.
[3] = tested on: pancreatic neuroendocrine tumors (pNET) of Rip1Tag2 mice; assay: Therapy study, tumor volume in Rip1Tag2 mice; details: day 8, radiopeptide 1.1 MBq i.v. once, kinase inhibitor 100 mg/kg p.o. daily for 7 days
GLP-1R = assay: GLP-1 receptor autoradiography of tumors after vatalanib treatment; format: in vivo, mouse; details: Rip1Tag2 mice, vatalanib 100 mg/kg p.o. for 4 days, n = 4; 32 pM [125I]-GLP-1; p = 0.98 vs saline control
Description: GLP-1 receptor autoradiography was used to quantify the GLP-1 receptors in the mouse tumors in the presence or absence of vatalanib treatment. The Rip1Tag2 mice were treated with vatalanib as described before for 4 days and sacrificed on day 5. During necropsy, the tumors were snap frozen on dry ice. Tumor sections (20-μm thick) were incubated for 2 h at ambient temperature in the presence of 32 pM [^125I]-GLP-1 (2,000 Ci/mmol). The incubation solution was 170 mM Tris-HCI buffer (pH 8.2) containing 1% bovine serum albumin, bacitracin (40 μg/ml) and MgCl2 (10 mM) to inhibit endogenous proteases. Non-specific binding was determined by adding 100-nM solution of unlabeled GLP-1. The incubated sections were washed twice for 5 min in cold incubation buffer containing 0.25% bovine serum albumin, then in buffer alone, and dried quickly. Finally, the sections were apposed to Biomax MR films (Kodak, Rochester, NY, USA) and exposed for 1 week in X-ray cassettes.
In all the experiments, the autoradiograms were quantified using a computer-assisted image processing system. Tissue standards for iodinated compounds were used for this purpose.

[4] = tested on: tumor β-cells of Rip1Tag2 mice; assay: Tumor cell apoptosis, TUNEL assay; format: in vivo, mouse; details: Rip1Tag2 mice after 7-day therapy, vatalanib study
[5] = tested on: pancreatic neuroendocrine tumors (pNET) of Rip1Tag2 mice; details: injection of 28 MBq; cited from earlier work
Description: (§1) We have shown in the Rip1Tag2 mouse model of pancreatic neuroendocrine tumors (pNET) that [Lys^40(Ahx-DTPA-^111In)NH2]-exendin-4 is suitable for molecular imaging of NETs using single-photon emission computed tomography (SPECT). pNETs could be detected down to a size of 1 mm in diameter. In a clinical pilot study, we could localize occult insulinomas that were not detectable using conventional imaging methods.

[6] = tested on: pancreas, lungs, bowel and kidneys of Rip1Tag2 and C57/Bl6 mice; details: dose of 28 MBq; cited from earlier work
Description: as §1

[7] = tested on: pancreatic tumors and other organs of Rip1Tag2 mice; details: mouse, in vivo; cited from earlier work
Description: Thus, the combination with an anti-angiogenic drug that has a different toxicity profile than the radiopeptide reduces the amount of [Lys^40(Ahx-DTPA-^111In)NH2]-exendin-4 and is a more nephroprotective treatment. This is relevant because kidney ...

[8] = tested on: GLP-1 receptor-expressing tumor cells established from pancreatic tumors of Rip1Tag2 mice; format: cell-based, mouse
Description: A nuclei isolation kit (Nuclei EZ Prep Kit, Sigma-Aldrich Chemie Gmbh, Steinheim, Germany) was used to separate and quantify the amount of radioactivity stored in the nuclei. The preparation was done according to the manufacturer's instructions. The GLP-1 receptor-expressing tumor cells were established from pancreatic tumors of Rip1Tag2 mice, as described previously. The cells were seeded at a density of 2 × 10^7 cells in Petri dishes and incubated overnight. Afterward, 25 pmol ^111In-DTPA-exendin-4 (2.5 MBq) was added to the Petri dishes and incubated at 37°C. The internalization was stopped at 2, 4, and 24 h by removing the medium and by washing the cells four times with 5-ml ice-cold phosphate-buffered saline. Ice-cold nuclei EZ lysis buffer (2 ml) was added, and the cells were scraped with a small bladed cell scraper. The cell lysate was transferred to a separate 15-ml centrifuge tube and set on ice for 5 min. To collect the nuclei, the cell lysate was centrifuged three times at 500 g for 5 min at 4°C. The culture medium, the clear supernatant (cytoplasmatic supernatant), and nucleus pellets were measured radiometrically with a γ-counter.

| Compound | effect of pre-treatment on uptake of the radiopeptide ([1]; imatinib 100 mg/kg p.o. daily, independent of organ or time point (0, 3, 5, 7 days)) | effect on tumor-associated vessels ([2]; imatinib 100 mg/kg p.o. for 7 days) | effect on radiopeptide uptake in all the other organs ([1]; vatalanib 100 mg/kg p.o. daily up to 7 days) | reduction of radiopeptide uptake in the kidney ([1]; vatalanib 100 mg/kg p.o. daily, within 7 days, p < 0.001) | decrease of specific tumor uptake of radiopeptide ([1]; within the first 5 days of vatalanib treatment) | tumor volume treated/volume control (T/C) ratio [3] | expression of the GLP-1R on pancreatic tumors by autoradiography (GLP-1R) | microvessel density, CD31-positive blood vessels (median) [2] | number of apoptotic cells/0.1 mm^2 (median) [4] | reduction of the tumor mass [5] | renal toxicity [6] | tumor uptake [7] | internalized activity accumulated in the nucleus [8] |
| --- | --- | --- | --- | --- | --- | --- | --- | --- | --- | --- | --- | --- | --- |
| Cc1ccc(NC(=O)c2ccc(CN3CCN(C)CC3)cc2)cc1Nc1nccc(-c2cccnc2)n1 [imatinib] | did not affect the uptake | no apparent effect |  |  |  |  |  |  |  |  |  |  |  |
| Clc1ccc(Nc2nnc(Cc3ccncc3)c3ccccc23)cc1 [vatalanib] |  |  | unaffected | 29.5% | more than 50% | 0.26 | 14,176 ± 5,958 dgm/min | 28 /mm^2 | 1.7 cells/0.1 mm^2 |  |  |  |  |
| [Lys^40(Ahx-DTPA-^111In)NH2]-exendin-4 |  |  |  |  |  |  |  | 77 /mm^2 |  | 94% | significant renal radiation damage and consequent chronic renal failure | 287 ± 62 % IA/g tumor | less than 5% |
